# Measured values reported in ChEMBL document CHEMBL5523671, “ω-(5-Phenyl-2H-tetrazol-2-yl)alkyl-substituted glycine amides and related compounds as inhibitors of the amine oxidase vascular adhesion protein-1 (VAP-1)” (Bioorg Med Chem, 2024).
# The source made the active and inactive calls. The calls are words filed in the database; no cut-off is given here.
# Columns and labels:
# [1] = biological target: T1, Amine oxidase [copper-containing] 3 (Bos taurus, UniProt Q9TTK6); experiment: Inhibition of bovine plasma VAP-1 using 6-(5-Pheny1-2H-tetrazol-2-yl)hexan-1-amine as substrate measured after 30 mins by UV-HPLC analysis; format: cell-free
# T1 sequence (Q9TTK6 whole entry): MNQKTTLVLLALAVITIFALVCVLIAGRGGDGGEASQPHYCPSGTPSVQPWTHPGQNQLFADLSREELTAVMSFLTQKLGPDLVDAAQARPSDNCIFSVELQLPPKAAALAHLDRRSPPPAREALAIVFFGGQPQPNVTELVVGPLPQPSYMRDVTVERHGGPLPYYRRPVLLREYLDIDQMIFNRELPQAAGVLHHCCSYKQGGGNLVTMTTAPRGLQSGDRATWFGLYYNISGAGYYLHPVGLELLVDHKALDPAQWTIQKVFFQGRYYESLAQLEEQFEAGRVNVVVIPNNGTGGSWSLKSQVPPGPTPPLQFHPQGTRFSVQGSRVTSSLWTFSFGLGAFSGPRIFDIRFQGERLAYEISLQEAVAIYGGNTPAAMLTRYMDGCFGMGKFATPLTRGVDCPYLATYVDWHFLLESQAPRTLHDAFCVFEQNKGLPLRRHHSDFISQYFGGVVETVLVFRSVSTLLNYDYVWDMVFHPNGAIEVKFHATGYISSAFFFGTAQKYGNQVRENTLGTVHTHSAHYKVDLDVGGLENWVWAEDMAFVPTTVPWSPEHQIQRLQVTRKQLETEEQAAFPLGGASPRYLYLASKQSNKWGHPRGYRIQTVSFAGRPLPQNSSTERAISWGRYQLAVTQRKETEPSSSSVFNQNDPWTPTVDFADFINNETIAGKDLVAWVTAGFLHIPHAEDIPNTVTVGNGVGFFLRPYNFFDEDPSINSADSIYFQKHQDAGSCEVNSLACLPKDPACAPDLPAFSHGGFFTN
# [2] = biological target: T2, Amine oxidase [copper-containing] 3 (Bos taurus) (UniProt Q9TTK6); experiment: Inhibition of bovine plasma VAP-1 using 6-(5-Pheny1-2H-tetrazol-2-yl)hexan-1-amine as substrate at 10 uM preincubated with enzyme for 15 mins followed by substrate addition measured after 30 mins by UV-HPLC analysis relative to control; format: cell-free; settings: time 45.0 min
# T2 sequence (whole entry): T1 sequence (Q9TTK6 whole entry)
# [3] = biological target: T1, Amine oxidase [copper-containing] 3; experiment: Inhibition of bovine plasma VAP-1 using 6-(5-Pheny1-2H-tetrazol-2-yl)hexan-1-amine as substrate preincubated with enzyme for 15 mins followed by substrate addition measured after 30 mins by UV-HPLC analysis; format: cell-free
# [4] = biological target: T2, Amine oxidase [copper-containing] 3 (Bos taurus); experiment: Inhibition of bovine plasma VAP-1 using 6-(5-Pheny1-2H-tetrazol-2-yl)hexan-1-amine as substrate at 10 uM measured after 30 mins by UV-HPLC analysis relative to control; format: cell-free
# [5] = Selectivity index, ratio of IC50 for human plasma VAP-1 to IC50 for bovine plasma VAP-1
# [6] = biological target: T3, VAP-1 (amine oxidase [copper-containing] 3) (Bos taurus, UniProt Q9TTK6); experiment: Stability of compound assessed as bovine plasma VAP-1 mediated drug degradation by measuring parent compound remaining at 10 uM incubated for 30 mins by HPLC-MS analysis; format: ADME, cell-free; settings: cattle, bovine plasma VAP-1 (amine oxidase [copper-containing] 3), read-out: Stability
# T3 sequence (Q9TTK6 whole entry): T1 sequence (Q9TTK6 whole entry)
# [7] = biological target: T3, VAP-1 (amine oxidase [copper-containing] 3); experiment: Stability of compound assessed as bovine plasma VAP-1 mediated drug degradation by measuring parent compound remaining at 10 uM incubated for 15 mins by HPLC-MS analysis; format: ADME, cell-free; settings: cattle, bovine plasma VAP-1 (amine oxidase [copper-containing] 3), read-out: Stability
# [8] = biological target: T3, VAP-1 (amine oxidase [copper-containing] 3); experiment: Stability of compound assessed as bovine plasma VAP-1 mediated drug degradation by measuring parent compound remaining at 10 uM incubated for 120 mins by HPLC-MS analysis; format: ADME, cell-free; settings: cattle, bovine plasma VAP-1 (amine oxidase [copper-containing] 3), read-out: Stability
# [9] = biological target: T3, VAP-1 (amine oxidase [copper-containing] 3); experiment: Stability of compound assessed as bovine plasma VAP-1 mediated drug degradation by measuring parent compound remaining at 10 uM incubated for 60 mins by HPLC-MS analysis; format: ADME, cell-free; settings: cattle, bovine plasma VAP-1 (amine oxidase [copper-containing] 3), read-out: Stability
# [10] = biological target: T4, Amine oxidase [copper-containing] 3 (Homo sapiens, UniProt Q16853); experiment: Inhibition of human plasma VAP-1 using 6-(5-Pheny1-2H-tetrazol-2-yl)hexan-1-amine as substrate preincubated with enzyme for 15 mins followed by substrate addition measured after 120 mins by UV-HPLC analysis; format: cell-free
# T4 sequence (Q16853 whole entry): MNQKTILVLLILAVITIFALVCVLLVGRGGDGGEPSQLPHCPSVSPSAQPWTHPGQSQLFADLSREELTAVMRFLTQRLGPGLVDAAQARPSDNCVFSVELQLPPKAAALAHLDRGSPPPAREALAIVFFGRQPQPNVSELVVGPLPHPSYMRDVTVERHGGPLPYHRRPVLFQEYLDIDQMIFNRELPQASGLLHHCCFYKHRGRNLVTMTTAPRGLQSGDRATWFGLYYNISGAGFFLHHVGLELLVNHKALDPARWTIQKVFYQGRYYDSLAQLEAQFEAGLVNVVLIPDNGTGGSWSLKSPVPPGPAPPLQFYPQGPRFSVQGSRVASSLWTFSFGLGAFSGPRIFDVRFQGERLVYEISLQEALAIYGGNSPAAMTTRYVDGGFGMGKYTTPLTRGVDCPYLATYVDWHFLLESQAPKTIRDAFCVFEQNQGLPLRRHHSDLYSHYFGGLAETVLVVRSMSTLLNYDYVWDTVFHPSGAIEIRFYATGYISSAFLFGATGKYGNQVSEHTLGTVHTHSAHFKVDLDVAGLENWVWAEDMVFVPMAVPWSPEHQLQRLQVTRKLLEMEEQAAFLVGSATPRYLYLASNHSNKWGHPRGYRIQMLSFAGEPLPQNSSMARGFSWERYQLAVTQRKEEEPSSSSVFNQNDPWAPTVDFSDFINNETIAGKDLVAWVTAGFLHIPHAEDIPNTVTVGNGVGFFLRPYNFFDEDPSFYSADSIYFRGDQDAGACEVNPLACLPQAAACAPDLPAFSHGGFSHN
# [11] = biological target: T3, VAP-1 (amine oxidase [copper-containing] 3); experiment: Stability of compound assessed as bovine plasma VAP-1 mediated drug degradation by measuring parent compound remaining at 1 uM incubated for 120 mins by HPLC-MS analysis; format: ADME, cell-free; settings: cattle, bovine plasma VAP-1 (amine oxidase [copper-containing] 3), read-out: Stability
# [12] = biological target: T3, VAP-1 (amine oxidase [copper-containing] 3); experiment: Stability of compound assessed as bovine plasma VAP-1 mediated drug degradation by measuring parent compound remaining at 1 uM incubated for 60 mins by HPLC-MS analysis; format: ADME, cell-free; settings: cattle, bovine plasma VAP-1 (amine oxidase [copper-containing] 3), read-out: Stability
# [13] = biological target: T3, VAP-1 (amine oxidase [copper-containing] 3); experiment: Stability of compound assessed as bovine plasma VAP-1 mediated drug degradation by measuring parent compound remaining at 1 uM incubated for 15 mins by HPLC-MS analysis; format: ADME, cell-free; settings: cattle, bovine plasma VAP-1 (amine oxidase [copper-containing] 3), read-out: Stability
# [14] = biological target: T3, VAP-1 (amine oxidase [copper-containing] 3); experiment: Stability of compound assessed as bovine plasma VAP-1 mediated drug degradation by measuring parent compound remaining at 1 uM incubated for 30 mins by HPLC-MS analysis; format: ADME, cell-free; settings: cattle, bovine plasma VAP-1 (amine oxidase [copper-containing] 3), read-out: Stability
# [15] = Selectivity index, ratio of IC50 for porcine kidney DAO to IC50 for bovine plasma VAP-1
# [16] = biological target: T1, Amine oxidase [copper-containing] 3; experiment: Stability of compound assessed as bovine plasma VAP-1 mediated drug degradation by measuring formation of aldehyde metabolite at 1 to 10 uM incubated for 60 to 120 mins by HPLC-MS analysis; format: ADME, cell-free; settings: cattle, dose lower 1 µM, time lower 60 min, dose upper 10 µM, time upper 120 min
structure (smiles),measurement,setting,value
NCC(=O)NCCCCn1nnc(-c2ccccc2)n1,IC50,[1],> 10 µM
same,inhibition,[2],29%
same,IC50,[3],> 10 µM
same,inhibition,[4],14%
NCC(=O)NCCCCCCn1nnc(-c2cccs2)n1,IC50,[1],5.6 µM
same,IC50,[3],7.7 µM
COc1ccc(-c2nnn(CCCCCCNC(=O)CN)n2)cc1,IC50,[1],6.2 µM
same,IC50,[3],6.3 µM
NCC(=O)NCCCCCCn1nnc(-c2ccc(C(N)=O)cc2)n1,IC50,[1],4 µM
same,IC50,[3],5.2 µM
CN(Cc1cccc(Cn2nnc(-c3ccccc3)n2)c1)C(=O)CN,IC50,[1],> 10 µM
same,inhibition,[2],49%
same,Ratio IC50,[5],2
same,"remaining at 0.5 h, 10 µM",[6],85%
same,"remaining at 0.25 h, 10 µM",[7],95%
same,IC50,[3],> 10 µM
same,inhibition,[4],43%
same,"remaining at 2 h, 10 µM",[8],45%
same,"remaining at 1 h, 10 µM",[9],65%
same,IC50,[10],20 µM
NCC(=O)NCCCCCCn1nnc(-c2ccncc2)n1,IC50,[1],6.2 µM
same,IC50,[3],5.4 µM
NCC(=O)NCCCCCCCCn1nnc(-c2ccccc2)n1,IC50,[1],3.1 µM
same,IC50,[3],4.8 µM
NCC(=O)NCCCn1nnc(-c2ccccc2)n1,IC50,[1],> 10 µM
same,inhibition,[2],29%
same,IC50,[3],> 10 µM
same,inhibition,[4],13%
CC(C)(C)NC(=O)c1ccc(OC/C(=C/F)CN)cc1,IC50,[1],1 µM
same,"remaining at 2 h, 1 µM",[11],90%
same,"remaining at 1 h, 1 µM",[12],> 95%
same,"remaining at 0.5 h, 10 µM",[6],> 95%
same,"remaining at 0.25 h, 10 µM",[7],> 95%
same,IC50,[3],0.027 µM
same,"remaining at 2 h, 10 µM",[8],> 95%
same,"remaining at 1 h, 10 µM",[9],> 95%
same,"remaining at 0.25 h, 1 µM",[13],> 95%
same,"remaining at 0.5 h, 1 µM",[14],> 95%
Cl.N#Cc1ccc(-c2nnn(Cc3cccc(CNC(=O)CN)c3)n2)cc1,Ratio IC50,[15],50
same,"remaining at 2 h, 1 µM",[11],< 5%
same,Ratio IC50,[5],2
same,"remaining at 1 h, 1 µM",[12],< 5%
same,"remaining at 0.5 h, 10 µM",[6],95%
same,"remaining at 0.25 h, 10 µM",[7],93%
same,"remaining at 2 h, 10 µM",[8],81%
same,Stability,[16],Stable
same,"remaining at 0.25 h, 1 µM",[13],74%
same,"remaining at 0.5 h, 1 µM",[14],49%
NCCCCCCn1nnc(-c2ccccc2)n1,"remaining at 0.5 h, 10 µM",[6],< 5%
same,"remaining at 0.25 h, 10 µM",[7],< 5%
same,"remaining at 2 h, 10 µM",[8],< 5%
same,"remaining at 1 h, 10 µM",[9],< 5%
NCC(=O)NCCCCCCn1cc(-c2ccccc2)cn1,IC50,[1],6.9 µM
same,IC50,[3],7.9 µM
NCC(=O)NCCCCCCn1nnc(-c2ccc(C(=O)O)cc2)n1,inhibition,[2],inactive
same,inhibition,[4],inactive
NCC(=O)NCCCCCCCn1nnc(-c2ccccc2)n1,IC50,[1],5.7 µM
same,IC50,[3],6.6 µM
NCC(=O)NCCCCCCn1nnc(-c2ccc(Cl)cc2)n1,IC50,[1],3.5 µM
same,IC50,[3],4.3 µM
NCC(=O)NCCCCCCn1nnc(-c2cccnc2)n1,IC50,[1],> 10 µM
same,inhibition,[2],45%
same,IC50,[3],> 10 µM
same,inhibition,[4],44%
COC(=O)c1ccc(-c2nnn(CCCCCCNC(=O)CN)n2)cc1,IC50,[1],7.3 µM
same,IC50,[3],6.1 µM
